Experimental data: patent US11326191B2 (LYGOS, INC., priority 2016, dated 2022)

Tests used:
[1] = Malonic acid solubility in water at various temperatures; assay type: physicochemical; settings: 65° C.
[2] = Thermal stability of malonic acid (decarboxylation to acetic acid); assay type: physicochemical

## O=C(O)CC(=O)O [malonic acid, propanedioic acid]
[1]
  solubility limit of malonic acid: 76 % wt/wt
[2]
  temperature at which malonic acid decarboxylates to form acetic acid: approximately 80 °C
[2]; under acidic conditions
  temperature at which malonic acid begins to rapidly decompose: about 80 °C
